Common to all, as to format: biochemical
For one assay, the target named is T1, JAK2 (Homo sapiens, UniProt O60674).
T1 construct: made in house; host or cells: SF9 insect cells (baculovirus)
Description: JAK2 inhibition (Table 4). The conditions noted are these: read-out: JAK2 Ki.

For another assay, the target named is T2, TYK2 (Homo sapiens, UniProt P29597).
T2 construct: made in house; host or cells: SF9 insect cells (baculovirus)
T2 sequence (P29597 873-1187): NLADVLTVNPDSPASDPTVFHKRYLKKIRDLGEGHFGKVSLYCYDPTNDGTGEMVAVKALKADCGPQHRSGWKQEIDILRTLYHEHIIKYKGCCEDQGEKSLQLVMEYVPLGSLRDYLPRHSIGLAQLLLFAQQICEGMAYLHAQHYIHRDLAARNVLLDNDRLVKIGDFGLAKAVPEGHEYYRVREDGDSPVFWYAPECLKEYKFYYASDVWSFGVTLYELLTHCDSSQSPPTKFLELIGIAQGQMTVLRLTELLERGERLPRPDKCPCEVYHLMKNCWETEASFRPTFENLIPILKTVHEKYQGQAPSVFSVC
The assay can be described thus: TYK2 inhibition (Table 4).

In another assay the target is T3, JAK1 (Homo sapiens, UniProt P23458).
T3 construct: made in house; host or cells: SF9 insect cells (baculovirus)
Description: JAK1 inhibition (Table 4). The conditions noted are these: read-out: JAK1 Ki.

In a further assay the target is T4, JAK3 (Homo sapiens, UniProt P52333).
T4 construct: made in house; host or cells: SF9 insect cells (baculovirus)
The assay can be described thus: JAK3 inhibition (Table 4). The conditions noted are these: read-out: JAK3 Ki.

This note sets out measurements from patent US8461328B2, “Tricyclic heterocyclic compounds, compositions and methods of use thereof” (Genentech, Inc., priority 2010, dated 2013).

By Ki is commonly meant a dissociation constant, usually derived from enzyme kinetics or from competition with a known ligand.

T1 sequence (O60674 812-1132): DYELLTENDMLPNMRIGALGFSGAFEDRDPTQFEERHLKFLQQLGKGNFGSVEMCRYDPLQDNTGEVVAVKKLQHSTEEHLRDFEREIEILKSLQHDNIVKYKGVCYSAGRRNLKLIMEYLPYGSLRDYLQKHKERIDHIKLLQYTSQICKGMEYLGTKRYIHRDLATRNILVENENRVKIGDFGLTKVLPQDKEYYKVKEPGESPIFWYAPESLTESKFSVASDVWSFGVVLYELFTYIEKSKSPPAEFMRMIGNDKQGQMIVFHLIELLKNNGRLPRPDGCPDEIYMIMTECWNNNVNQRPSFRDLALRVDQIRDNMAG
T4 sequence (P52333 783-1124): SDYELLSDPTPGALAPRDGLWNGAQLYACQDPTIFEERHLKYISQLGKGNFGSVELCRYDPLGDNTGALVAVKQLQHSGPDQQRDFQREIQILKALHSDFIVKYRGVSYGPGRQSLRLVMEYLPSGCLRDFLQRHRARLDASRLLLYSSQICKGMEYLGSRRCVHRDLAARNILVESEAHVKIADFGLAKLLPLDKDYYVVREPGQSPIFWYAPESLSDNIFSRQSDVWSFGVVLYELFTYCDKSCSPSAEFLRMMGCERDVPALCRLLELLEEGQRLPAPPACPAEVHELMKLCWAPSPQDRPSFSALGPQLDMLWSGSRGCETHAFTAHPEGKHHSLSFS
T3 sequence (P23458 852-1154): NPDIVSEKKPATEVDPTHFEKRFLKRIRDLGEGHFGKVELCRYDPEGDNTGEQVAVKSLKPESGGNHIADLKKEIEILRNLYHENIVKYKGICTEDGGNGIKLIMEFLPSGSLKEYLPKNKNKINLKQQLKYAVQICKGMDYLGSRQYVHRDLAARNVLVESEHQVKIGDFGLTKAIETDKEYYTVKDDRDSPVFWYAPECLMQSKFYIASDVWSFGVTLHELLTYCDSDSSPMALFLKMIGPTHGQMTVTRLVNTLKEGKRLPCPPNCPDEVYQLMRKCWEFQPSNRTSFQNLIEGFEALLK

Regarding `O=C(CN1CCC[C@@H](n2cnc3cnc4[nH]ccc4c32)C1)c1ccccc1` [Example 225, 1-Phenyl-2-[(R)-3-(6H-1,3,5,6-tetraaza-as-indacen-1-yl)-piperidin-1-yl]-ethanone], the Ki at JAK2 came to 127 nM; on TYK2 it was 817 nM; at JAK1, 59.6 nM; on JAK3, 118 nM.

Consider `CC1(C)CC1C(=O)N1CCC[C@@H](n2cnc3cnc4[nH]ccc4c32)C1` (stereo partly drawn) [Example 226, (2,2-Dimethyl-cyclopropyl)-[(R)-3-(6H-1,3,5,6-tetraaza-as-indacen-1-yl)-piperidin-1-yl]-methanone], for which the Ki was 18.1 nM on JAK2, 82.1 nM at TYK2, 16.2 nM on JAK1 and 78.5 nM on JAK3.

Consider `CC1(C(=O)N2CCC[C@@H](n3cnc4cnc5[nH]ccc5c43)C2)CC1` [Example 227, (1-Methyl-cyclopropyl)-[(R)-3-(6H-1,3,5,6-tetraaza-as-indacen-1-yl)-piperidin-1-yl]-methanone], for which the Ki on JAK2 was found to be 3.16 nM; at TYK2, 12.5 nM; on JAK1, 6.41 nM; on JAK3 it was 83 nM.

Consider `O=C(N1CCC[C@@H](n2cnc3cnc4[nH]ccc4c32)C1)C1(C(F)(F)F)CC1` [Example 228, [(R)-3-(6H-1,3,5,6-tetraaza-as-indacen-1-yl)-piperidin-1-yl]-(1-trifluoromethyl-cyclopropyl)-methanone], for which the Ki on JAK2 is 5.99 nM; at TYK2, 43.4 nM; at JAK1, 15.8 nM; at JAK3 it was 118 nM.

`c1cc2c(ncc3nnn(C4CCNCC4)c32)[nH]1` [Example 231]: the Ki at JAK2 is 395 nM; at TYK2, 1030 nM; on JAK1 it was 86.6 nM; at JAK3, 1140 nM.

For `N#CCCN1CCC(n2nnc3cnc4[nH]ccc4c32)CC1` [Example 232, 3-[4-(6H-1,2,3,5,6-Pentaaza-as-indacen-1-yl)-piperidin-1-yl]-propionitrile], the Ki at JAK2 came to 3.35 nM; on TYK2, 19.3 nM; on JAK1 it was 2.03 nM; on JAK3 it was 53.4 nM.

`CS(=O)(=O)N1CCC(n2nnc3cnc4[nH]ccc4c32)CC1` [Example 233, 1-(1-Methanesulfonyl-piperidin-4-yl)-1,6-dihydro-1,2,3,5,6-pentaaza-as-indacene]: the Ki worked out at 7.84 nM at JAK2, 77.1 nM at TYK2, 4.96 nM on JAK1 and 250 nM at JAK3.

As for `c1ccc(CCN2CCC[C@@H](n3cnc4cnc5[nH]ccc5c43)C2)cc1` [Example 234, 1-((R)-1-Phenthyl-piperidin-3-yl)-1,6-dihydro-1,3,5,6-tetraaza-as-indacene], the Ki was determined as 179 nM on JAK2, 1760 nM on TYK2, 63.3 nM on JAK1 and 132 nM on JAK3.

On to `OCc1nc2cnc3[nH]ccc3c2n1C1CCNCC1` [Example 236, (1-Piperidin-4-yl-1,6-dihydro-1,3,5,6-tetraaza-as-indacen-2-yl)-methanol], for which the Ki on JAK2 was 126 nM; on TYK2, 61.5 nM; at JAK1, 7.66 nM; on JAK3, 128 nM.

Take `Cc1nc2cnc3[nH]ccc3c2n1[C@@H]1CCCN(Cc2ccccc2)C1` [Example 238, (R)-1-(1-Benzyl-piperidin-3-yl)-2-methyl-1,6-dihydro-1,3,5,6-tetraaza-as-indacene]: the Ki was 26 nM on JAK2, 171 nM at TYK2, 29.3 nM on JAK1 and 85.2 nM on JAK3.

In the case of `N#CCCN1CCC(n2c(CO)nc3cnc4[nH]ccc4c32)CC1` [Example 239, 3-[4-(2-Hydroxymethyl-6H-1,3,5,6-tetraaza-as-indacen-1-yl)-piperidin-1-yl]-propionitrile], the Ki on JAK2 was 5.1 nM; at TYK2, 7.39 nM; at JAK1, 1.53 nM; on JAK3, 10.4 nM.

For `N#CCCN1CCC(n2c(CC(=O)N3CCC(F)(F)CC3)nc3cnc4[nH]ccc4c32)CC1` [Example 240, 3-(4-{2-[2-(4,4-Difloro-piperidin-1-yl)-2-oxo-ethyl]-6H-1,3,5,6-tetraaza-as-indacen-1-yl)-piperidin-1-yl]-propionitrile], the Ki on JAK2 is 56 nM; on TYK2, 72.7 nM; at JAK1, 6.92 nM; on JAK3, 7.35 nM.

For `CC(C)(C)OC(=O)N1CCC[C@@H]1C(=O)N1CCC(n2cnc3cnc4[nH]ccc4c32)CC1` [Example 242, (R)-2-[4-(6H-1,3,5,6-Tetraaza-as-indacen-1-yl)-piperidine-1-carbonyl]-pyrrolidine-1-carboxylic acid tert-butyl ester], the Ki at JAK2 worked out at 311 nM; on TYK2, 2560 nM; at JAK1 it was 217 nM; on JAK3 it was 4060 nM.

Turning to `NC(=O)Cc1nc2cnc3[nH]ccc3c2n1C1CCN(Cc2ccccc2)CC1` [Example 245, 2-[1-(1-Benzyl-piperidin-4-yl)-1,6-dihydro-1,3,5,6-tetraaza-as-indacen-2-yl]-acetamide], the Ki at JAK2 turned out to be 43.1 nM; on TYK2, 468 nM; on JAK1 it was 9.84 nM; on JAK3 it was 19.4 nM.

For `O=C([C@H]1CC[C@H](n2nnc3cnc4[nH]ccc4c32)CC1)N1CCOCC1` [Example 246, Morpholin-4-yl-[4-(6H-1,2,3,5,6-pentaaza-as-indacen-1-yl)-cyclohexyl]-methanone], the Ki on JAK2 was 183 nM; at TYK2 it was 1620 nM; at JAK1, 164 nM; on JAK3, 652 nM.

Consider `CC(C)NC(=O)[C@H]1CC[C@H](n2cnc3cnc4[nH]ccc4c32)CC1` [Example 247, 4-(6H-1,3,5,6-Tetraaza-as-indacen-1-yl)-cyclohexanecarboxylic acid isopropylamide], for which the Ki on JAK2 amounted to 136 nM; at TYK2 it was 358 nM; on JAK1, 32.2 nM; on JAK3 it was 245 nM.

Consider `O=C([C@H]1CCCN1)N1CCC(n2cnc3cnc4[nH]ccc4c32)CC1` [Example 248, (R)-Pyrrolidin-2-yl-[4-(6H-1,3,5,6-tetraaza-as-indacen-1-yl)-piperidin-1-yl]-methanone], for which the Ki on JAK2 stood at 342 nM; at TYK2 it was 3190 nM; at JAK1 it was 216 nM; on JAK3, 1160 nM.

As to `O=C([C@@H]1CCCN1)N1CCC(n2cnc3cnc4[nH]ccc4c32)CC1` [Example 249, (S)-Pyrrolidin-2-yl-[4-(6H-1,3,5,6-tetraaza-as-indacen-1-yl)-piperidin-1-yl]-methanone], the Ki worked out at 365 nM at JAK2, 1110 nM on TYK2, 48.6 nM at JAK1 and 1180 nM at JAK3.

For `O=C([C@@H]1CC(F)(F)CN1)N1CCC(n2cnc3cnc4[nH]ccc4c32)CC1` [Example 250, ((S)-4,4-Difluoro-pyrrolidin-2-yl)-[4-(6H-1,3,5,6-tetraaza-as-indacen-1-yl)-piperidin-1-yl]-methanone], the Ki on JAK2 came to 64.7 nM; at TYK2, 300 nM; on JAK1 it was 29 nM; on JAK3, 336 nM.

In the case of `FC(F)(F)c1nc2cnc3[nH]ccc3c2n1C1CCNCC1` [Example 254, 1-Piperidin-4-yl-2-trifluoromethyl-1,6-dihydro-1,3,5,6-tetraaza-as-indacene], the Ki at JAK2 was 568 nM; on TYK2, 1500 nM; on JAK1 it was 69.5 nM; on JAK3, 234 nM.

Turning to `c1cc2c(ncc3ncn(CC4CCNCC4)c32)[nH]1` [Example 255, 1-Piperidin-4-ylmethyl-1,6-dihydro-1,3,5,6-tetraaza-as-indacene], the Ki on JAK2 is 490 nM; at TYK2, 1120 nM; at JAK1, 278 nM; on JAK3 it was 479 nM.

As for `N#CCCN1CCC(n2c(C(F)(F)F)nc3cnc4[nH]ccc4c32)CC1` [Example 256, 3-[4-(-2-Trifluoromethyl-6H-1,3,5,6-tetraaza-as-indacen-1-yl)-piperidin-1-yl]-propionitrile], the Ki on JAK2 stood at 9.21 nM; at TYK2, 68.8 nM; on JAK1, 7.86 nM; at JAK3 it was 9.96 nM.

Regarding `O=C(Cc1nc2cnc3[nH]ccc3c2n1C1CCN(Cc2ccccc2)CC1)N1CC(F)C1` [Example 258, 2-[1-(1-Benzyl-piperidin-4-yl)-1,6-dihydro-1,3,5,6-tetraaza-as-indacen-2-yl)-1-(3-fluoro-azetidin-1-yl)-ethanone], the Ki on JAK2 was found to be 125 nM; at TYK2, 1810 nM; on JAK1 it was 28.8 nM; on JAK3, 14.4 nM.

For `O=C(Cc1nc2cnc3[nH]ccc3c2n1C1CCN(Cc2ccccc2)CC1)N1CC(F)(F)C1` [Example 259, 2-[1-(1-Benzyl-piperidin-4-yl)-1,6-dihydro-1,3,5,6-tetraaza-as-indacen-2-yl)-1-(3,3-difluoro-azetidin-1-yl)-ethanone], the Ki at JAK2 was found to be 95.3 nM; at TYK2 it was 1850 nM; on JAK1, 27.8 nM; at JAK3 it was 11.7 nM.

In the case of `NC(=O)Cc1nc2cnc3[nH]ccc3c2n1C1CCNCC1` [Example 260, 2-(1-Piperidin-4-yl-1,6-dihydro-1,3,5,6-tetraaza-as-indacen-2-yl)-acetamide], the Ki came out at 847 nM at JAK2, 795 nM at TYK2, 41.6 nM on JAK1 and 302 nM at JAK3.
